From patent publication EP4389751A1, “HETEROCYCLIC COMPOUNDS AND USES THEREOF” (Kumquat Biosciences Inc., priority 2021, dated 2024)

Biological target: T1, KRAS protein (His-tagged GDP-loaded G12S 1-169) (Homo sapiens, UniProt P01116, G12S)
T1 construct: His-tagged GDP-loaded G12S 1-169
Assay: Covalent modification of KRAS protein, intact-protein LC-MS
Assay type: binding
Settings: for % G12S Modification at 24 hr.: 24hrs at room temperature, KRAS protein ~2 µM; for K-Ras12S engagement after 24-hour treatment: compound pairs differ only at R^6 (warhead)
How it was run: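 Percent covalent modification derives from deconvoluted intact-mass intensities of compound-adducted versus unmodified KRAS, measured by LC-ESI-MS. Before analysis, ~2 µM GDP-loaded His-KRAS 1-169 was exposed to compound for 24 h at room temperature and acidified with formic acid.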

Structure (SMILES) | % G12S Modification at 24 hr. | K-Ras12S engagement after 24-hour treatment
N#Cc1c(N)sc2c(F)ccc(-c3c(Cl)cc4c(N5CCOC6(CN(C(=O)n7ccnn7)C6)C5)nc(OC[C@@]56CCCN5C[C@H](F)C6)nc4c3F)c12 [Compound A195, 4-(4-(2-(1H-1,2,3-triazole-1-carbonyl)-5-oxa-2,8-diazaspiro[3.5]nonan-8-yl)-6-chloro-8-fluoro-2-(((2R,7aS)-2-fluorotetrahydro-1H-pyrrolizin-7a(5H)-yl)methoxy)quinazolin-7-yl)-2-amino-7-fluorobenzo[b]thiophene-3-carbonitrile] | +++ (+++ indicates greater than 20% labelling) | 
Cc1ncn(C(=O)N2CC3(C2)CN(c2nc(OC[C@@]45CCCN4C[C@H](F)C5)nc4c(F)c(-c5ccc(F)c6sc(N)c(C#N)c56)c(Cl)cc24)CCO3)n1 [Compound A148, 2-amino-4-(6-chloro-8-fluoro-2-(((2R,7aS)-2-fluorotetrahydro-1H-pyrrolizin-7 a(5H)-yl)methoxy)-4-(2-(3-methyl-1H-1,2,4-triazole-1-carbonyl)-5-oxa-2,8-diazaspiro[3.5]nonan-8-yl)quinazolin-7-yl)-7-fluorobenzo[b]thiophene-3-carbonitrile] | +++ (+++ indicates greater than 20% labelling) | 
N#Cc1c(N)sc2c(F)ccc(-c3c(Cl)cc4c(N5CCOC6CN(C(=O)n7cncn7)CC65)nc(OC[C@@]56CCCN5C[C@H](F)C6)nc4c3F)c12 (stereo partly drawn) [Compound A218, 4-(4-(6-(1H-1,2,4-triazole-1-carbonyl)hexahydropyrrolo [3,4-b][1,4]oxazin-4(4aH)-yl)-6-chloro-8-fluoro-2-(((2R,7aS)-2-fluorotetrahydro-1H-pyrrolizin-7a(5H)-yl)methoxy)quinazolin-7-yl)-2-amino-7-fluorobenzo[b]thiophene-3-carbonitrile] | +++ (+++ indicates greater than 20% labelling) | 
N#Cc1c(N)sc2c(F)ccc(-c3ncc4c(N5CCCC6(CN(C(=O)n7cncn7)C6)C5)nc(OC[C@@]56CCCN5C[C@H](F)C6)nc4c3F)c12 [Compound A134, 4-(4-(2-(1H-1,2,4-triazole-1-carbonyl)-2,6-diazaspiro[3.5]nonan-6-yl)-8-fluoro-2-(((2R,7aS)-2-fluorotetrahydro-1H-pyrrolizin-7a(5H)-yl)methoxy)pyrido[4,3-d]pyrimidin-7-yl)-2-amino-7-fluorobenzo[b]thiophene-3-carbonitrile] | +++ (+++ indicates greater than 20% labelling) | 
N#Cc1c(N)sc2c(F)ccc(-c3c(Cl)cc4c(N5CCC6(CN(C(=O)n7cncn7)C6)C5)nc(OC[C@@]56CCCN5C[C@H](F)C6)nc4c3F)c12 [Compound A277, 4-(4-(2-(1H-1,2,4-triazole-1-carbonyl)-2,6-diazaspiro[3.4]octan-6-yl)-6-chloro-8-fluoro-2-(((2R,7aS)-2-fluorotetrahydro-1H-pyrrolizin-7a(5H)-yl)methoxy)quinazolin-7-yl)-2-amino-7-fluorobenzo[b]thiophene-3-carbonitrile] | +++ (+++ indicates greater than 20% labelling) | +++ (+++: indicates equal to or greater than 20% labelling)
Nc1nc2c(-c3c(Cl)cc4c(N5CCN(C(=O)n6cncn6)CC(F)(F)C5)nc(OC[C@@]56CCCN5C[C@H](F)C6)nc4c3F)ccc(F)c2s1 [Compound A141, (4-(7-(2-amino-7-fluorobenzo[d]thiazol-4-yl)-6-chloro-8-fluoro-2-(((2R,7aS)-2-fluorotetrahydro-1H-pyrrolizin-7a(5H)-yl)methoxy)quinazolin-4-yl)-6,6-difluoro-1,4-diazepan-1-yl)(1H-1,2,4-triazol-1-yl)methanone] | +++ (+++ indicates greater than 20% labelling) | +++ (+++: indicates equal to or greater than 20% labelling)
N#Cc1c(N)sc2c(F)ccc(-c3c(Cl)cc4c(N5CCC6C5CCCN6C(=O)n5cncn5)nc(OC[C@@]56CCCN5C[C@H](F)C6)nc4c3F)c12 (stereo partly drawn) [Compound A152, 4-(4-(4-(1H-1,2,4-triazole-1-carbonyl)octahydro-1H-pyrrolo[3,2-b]pyridin-1-yl)-6-chloro-8-fluoro-2-(((2R,7aS)-2-fluorotetrahydro-1H-pyrrolizin-7a(5H)-yl)methoxy)quinazolin-7-yl)-2-amino-7-fluorobenzo[b]thiophene-3-carbonitrile] | +++ (+++ indicates greater than 20% labelling) | 
CN(C)C1CN(c2nc(N3CCOC4(CN(C(=O)n5cncn5)C4)C3)c3cc(Cl)c(-c4ccc(F)c5sc(N)c(C#N)c45)c(F)c3n2)C1 [Compound A256, 4-(4-(2-(1H-1,2,4-triazole-1-carbonyl)-5-oxa-2,8-diazaspiro[3.5]nonan-8-yl)-6-chloro-2-(3-(dimethylamino)azetidin-1-yl)-8-fluoroquinazolin-7-yl)-2-amino-7-fluorobenzo[b]thiophene-3-carbonitrile] | +++ (+++ indicates greater than 20% labelling) | 
N#Cc1nccn1C(=O)N1C2CCC1CN(c1nc(OC[C@@]34CCCN3C[C@H](F)C4)nc3c(F)c(-c4ccc(F)c5sc(N)nc45)c(Cl)cc13)C2 [Compound A170, 1-(3-(7-(2-amino-7-fluorobenzo[d]thiazol-4-yl)-6-chloro-8-fluoro-2-(((2R,7aS)-2-fluorotetrahydro-1H-pyrrolizin-7a(5H)-yl)methoxy)quinazolin-4-yl)-3,8-diazabicyclo[3.2. 1]octane-8-carbonyl)-1H-imidazole-2-carbonitrile] | ++ (++ indicates between about 1%- 20% labelling) | 
N#Cc1c(N)sc2c(F)ccc(-c3c(Cl)cc4c(N5CC6(CCCCN(C(=O)n7cncn7)C6)C5)nc(OC[C@@]56CCCN5C[C@H](F)C6)nc4c3F)c12 [Compound A285, 4-(4-(6-(1H-1,2,4-triazole-1-carbonyl)-2,6-diazaspiro[3.6]decan-2-yl)-6-chloro-8-fluoro-2-(((2R,7aS)-2-fluorotetrahydro-1H-pyrrolizin-7a(5H)-yl)methoxy)quinazolin-7-yl)-2-amino-7-fluorobenzo[b]thiophene-3-carbonitrile] | +++ (+++ indicates greater than 20% labelling) | 
Nc1nc2c(-c3c(Cl)cc4c(N5CCCN(C(=O)n6cncn6)CC5)nc(OC[C@@]56CCCN5C[C@H](F)C6)nc4c3F)ccc(F)c2s1 [Compound A191, (4-(7-(2-amino-7-fluorobenzo[d]thiazol-4-yl)-6-chloro-8-fluoro-2-(((2R,7aS)-2-fluorotetrahydro-1H-pyrrolizin-7a(5H)-yl)methoxy)quinazolin-4-yl)-1,4-diazepan-1-yl)(1H-1,2,4-triazol-1-yl)methanone] | +++ (+++ indicates greater than 20% labelling) | 
N#Cc1c(N)sc2c(F)ccc(-c3c(Cl)cc4c(N5CCC6C5CN6C(=O)n5cncn5)nc(OC[C@@]56CCCN5C[C@H](F)C6)nc4c3F)c12 (stereo partly drawn) [Compound A183, 4-(4-(6-(1H-1,2,4-triazole-1-carbonyl)-2,6-diazabicyclo[3.2.0]heptan-2-yl)-6-chloro-8-fluoro-2-(((2R,7aS)-2-fluorotetrahydro-1H-pyrrolizin-7a(5H)-yl)methoxy)quinazolin-7-yl)-2-amino-7-fluorobenzo[b]thiophene-3-carbonitrile] | ++ (++ indicates between about 1%- 20% labelling) | 
CN1CCC[C@H]1COc1nc(N2CCOC3(CN(C(=O)n4cncn4)C3)C2)c2cc(Cl)c(-c3ccc(F)c4sc(N)c(C#N)c34)c(F)c2n1 [Compound A137, 4-(4-(2-(1H-1,2,4-triazole-1-carbonyl)-5-oxa-2,8-diazaspiro[3.5]nonan-8-yl)-6-chloro-8-fluoro-2-(((S)-1-methylpyrrolidin-2-yl)methoxy)quinazolin-7-yl)-2-amino-7-fluorobenzo[b]thiophene-3-carbonitrile] | +++ (+++ indicates greater than 20% labelling) | 
Nc1nc2c(-c3c(Cl)cc4c(N5CCN(C(=O)n6cncn6)CC5)nc(OC[C@@]56CCCN5C[C@H](F)C6)nc4c3F)ccc(F)c2s1 [Compound A146, (4-(7-(2-amino-7-fluorobenzo[d]thiazol-4-yl)-6-chloro-8-fluoro-2-(((2R,7aS)-2-fluorotetrahydro-1H-pyrrolizin-7a(5H)-yl)methoxy)quinazolin-4-yl)piperazin-1-yl)(1H-1,2,4-triazol-1-yl)methanone] | +++ (+++ indicates greater than 20% labelling) | 
N#Cc1c(N)sc2c(F)ccc(-c3c(Cl)cc4c(OC5CCCCN(C(=O)n6cncn6)C5)nc(OC[C@@]56CCCN5C[C@H](F)C6)nc4c3F)c12 (stereo partly drawn) [Compound A258, 4-(4-((1-(1H-1,2,4-triazole-1-carbonyl)azepan-3-yl)oxy)-6-chloro-8-fluoro-2-(((2R,7aS)-2-fluorotetrahydro-1H-pyrrolizin-7a(5H)-yl)methoxy)quinazolin-7-yl)-2-amino-7-fluorobenzo[b]thiophene-3-carbonitrile] | +++ (+++ indicates greater than 20% labelling) | 
N#Cc1c(N)sc2c(F)ccc(-c3c(Cl)cc4c(N[C@H]5C[C@H]6CC[C@@H](C5)N6C(=O)n5cncn5)nc(OC[C@@]56CCCN5C[C@H](F)C6)nc4c3F)c12 [Compound A257, 4-(4-(((1R,3r,5S)-8-(1H-1,2,4-triazole-1-carbonyl)-8-azabicyclo[3.2.1]octan-3-yl)amino)-6-chloro-8-fluoro-2-(((2R,7aS)-2-fluorotetrahydro-1H-pyrrolizin-7 a(5H)-yl)methoxy)quinazolin-7-yl)-2-amino-7-fluorobenzo[b]thiophene-3-carbonitrile] | ++ (++ indicates between about 1%- 20% labelling) | 
Cc1nc(C)n(C(=O)N2CC3(C2)CN(c2nc(OC[C@@]45CCCN4C[C@H](F)C5)nc4c(F)c(-c5ccc(F)c6sc(N)c(C#N)c56)c(Cl)cc24)CCO3)n1 [Compound A283, 2-amino-4-(6-chloro-4-(2-(3,5-dimethyl-1H-1,2,4-triazole-1-carbonyl)-5-oxa-2,8-diazaspiro[3.5]nonan-8-yl)-8-fluoro-2-(((2R,7aS)-2-fluorotetrahydro-1H-pyrrolizin-7a(5H)-yl)methoxy)quinazolin-7-yl)-7-fluorobenzo[b]thiophene-3-carbonitrile] | +++ (+++ indicates greater than 20% labelling) | 
